Experimental data taken from patent US8404665B2, “In vivo use of glutathione S-transferase activated nitric oxide donors” (University of Utah Research Foundation, priority 2002, dated 2013).
Like-named read-outs stand apart in the source and are kept apart here.

Tests used:
U937 cells = assay: U937 leukemia cell growth; assay type: cell-based, human
Method: Cell Lines and Culture Conditions. HL-60, DLD1, and U937 cells were obtained from ATCC (Rockville, Md.). Meth A cells were from Dr. Wolfram Samlowski (University of Utah, Salt Lake City, Utah). The PPC-1 cell line was provided by Dr. Graeme Bolger (University of Alabama, Birmingham, Ala.). For the cell growth and apoptosis experiments, cells were cultured at a density of 150,000 cells/ml in RPMI-1640 with 10% fetal bovine serum at 37° C. in a 5% CO2 humidified atmosphere. Agents were added at the indicated concentrations 24 h after culture initiation. […]
(§1) Cell Growth, Differentiation and Apoptosis Assays. The number of viable cells was determined using the MTT assay according to the manufacturer's protocol (Promega, Madison, Wis.) or using a Coulter counter. […] The assay is useful in calorimetric quantitation of cell viability and proliferation. In contrast, cell differentiation was evaluated using Wright and Non-Specific Esterase (NSE) staining of cells collected on microscope slides by cytospin as previously described (Magrinat, G. et al. (1992) Blood 80: 1880-1884). […]
The antiproliferative effects in the human AML (Acute Myeloid Leukemia) cell lines, HL-60 (myeloid leukemia) and U937 (monoblastic leukemia) cells were treated with JS-K for a period of 3 days, upon which cell growth was evaluated using a Coulter counter (CITY, STATE). […]

HL-60 cells [1] = assay: HL-60 cell differentiation (Wright and non-specific esterase staining); assay type: cell-based, human; conditions: 0.5 uM, 3-5 days
Method: (§2) Cell Growth, Differentiation and Apoptosis Assays. The number of viable cells was determined using the MTT assay according to the manufacturer's protocol (Promega, Madison, Wis.) or using a Coulter counter. Briefly, a MTT assay is an analytical technique that uses the dye dimethylthiazolyl-diphenyltetrazolium (MTT) which turns from yellow to brownish-purple as it is reduced in the mitochondria of living cells. The assay is useful in calorimetric quantitation of cell viability and proliferation. In contrast, cell differentiation was evaluated using Wright and Non-Specific Esterase (NSE) staining of cells collected on microscope slides by cytospin as previously described (Magrinat, G. et al. (1992) Blood 80: 1880-1884). Apoptosis was assayed by flow cytometry and by determining DNA fragmentation using agarose gel electrophoresis as previously described (Shami, P. J. et al. (1998) Leukemia 12: 1461-1466). For the flow cytometry assay, we used the propidium iodide staining method of Nicoletti et al. (Nicoletti, I. et al. (1991) J. Immunol. Methods 139: 271-279).
HL-60 cells were treated with JS-K at a concentration of 0.5 uM for 3-5 days. […] JS-K appears to induce cell differentiation.

DLD-1 = DLD-1 solid tumor cell growth; assay type: cell-based
Method: Cell Lines and Culture Conditions. HL-60, DLD1, and U937 cells were obtained from ATCC (Rockville, Md.). Meth A cells were from Dr. Wolfram Samlowski (University of Utah, Salt Lake City, Utah). The PPC-1 cell line was provided by Dr. Graeme Bolger (University of Alabama, Birmingham, Ala.). For the cell growth and apoptosis experiments, cells were cultured at a density of 150,000 cells/ml in RPMI-1640 with 10% fetal bovine serum at 37° C. in a 5% CO2 humidified atmosphere. Agents were added at the indicated concentrations 24 h after culture initiation. At the indicated time intervals, cells were harvested and washed twice in phosphate buffered saline (PBS) prior to processing for analysis of growth, differentiation, and apoptosis.
as §1

HL-60 cells [2] = assay: Apoptosis in HL-60 cells by DNA laddering; assay type: cell-based, human; conditions: 1 μM, twenty-four hours post-addition
Method: as §2
Twenty-four hours post-addition, apoptosis induction was assayed by DNA laddering.

PPC-1 cells = assay: Subcutaneous PPC-1 tumor implants in NOD/SCID mice; assay type: in vivo
Method: To study the in vivo antineoplastic potency of JS-K, NOD/SCID mice were injected in the flanks subcutaneously with HL-60 or PPC-1 cells (2.5×10^6 cells per flank). When subcutaneous tumors were palpable, treatment with JS-K or an equal volume of vehicle (20% dimethyl sulfoxide in PBS) was started using the indicated doses and route. Tumor size was measured daily or every other day using a Vernier caliper. Tumor volume was calculated using the formula: width×length×[(width+length)/2]×0.5236. Fifteen to 20 days after tumor cell implantation, animals were sacrificed by CO2 inhalation and tumors were collected for histochemical analysis.
Histological Analysis of Tumors. After sacrifice, subcutaneous tumors were dissected out, fixed in 10% formaldehyde and imbedded in paraffin. Four-um sections were cut and stained with Hematoxylin and Eosin.
To determine if JS-K is cytotoxic to solid tumors, the effect of JS-K on the in vitro and in vivo growth of the prostate cancer cell line PPC-1 was studied. Similar to studies in HL-60 cells, indications are that JS-K appears to be a potent growth inhibitor for prostate cancer cells in vitro and in vivo. For the in vitro experiments, JS-K was added to PPC-1 cells at 1, 2, 3, 4, and 5 μM concentrations. […] For the in vivo experiments, NOD/SCID mice were inoculated subcutaneously with […] PPC-1 cells, as described above. When the subcutaneous tumors were measurable, JS-K was administered intravenously at a dose of 4 μmol/kg or an equal volume of vehicle 3 times per week.
In order to determine whether JS-K inhibits the in vivo growth of solid tumor cells, NOD/SCID mice were implanted with 2.5×10^6 PPC-1 (prostate carcinoma) cells and treated with 4 μmol/kg JS-K or an equal volume of vehicle intravenously 3 times a week. Similar to the observation with HL-60 cells, JS-K treatment appeared to inhibit the growth of PPC-1 cells in vivo. Nineteen days after start of therapy, subcutaneous tumor implant volumes were 0.368±0.082 and 0.107±0.053 cm^3 (P=0.0073) in vehicle and JS-K-treated animals, respectively. […]

[3] = 4 μmol/kg i.v. 3 times per week

CCOC(=O)N1CCN(/[N+]([O-])=N/Oc2ccc([N+](=O)[O-])cc2[N+](=O)[O-])CC1 [JS-K, O^2-(2,4-dinitrophenyl) 1-[(4-ethoxycarbonyl)piperazin-1-yl]diazen-1-ium-1,2-diolate]
IC50 (U937 cells; U937 (monocytic leukemia) cells, read-out: IC50, growth): 300 nM
IC50 (U937 cells; U937, 3 days, Coulter counter, read-out: IC50, cell growth): 330 nM
morphology by Wright stain (HL-60 cells [1]): morphologic changes consistent with a monocytic phenotype
percentage of HL-60 cells expressing NSE (HL-60 cells [1]; from 1): 40%
IC50 relative to leukemia lines (DLD-1): an order of magnitude greater than those for the two leukemia lines
apoptosis induction by DNA laddering (HL-60 cells [2]): potent inducer of apoptosis in leukemia cells
prostate cancer growth in vivo (PPC-1 cells; [3]): significant delay in prostate cancer growth in vivo
tumor histology (necrosis) (PPC-1 cells; [3]): high degree of extensive tumor necrosis
subcutaneous tumor implant volume (PPC-1 cells; nineteen days after start of therapy, vehicle 0.368±0.082, P=0.0073): 0.107±0.053 cm^3
